The results in this text go back to patent publication US4243674A, “9-Hydroxydibenzo[b,d]pyrans and intermediates therefore” (priority 1978, dated 1981).

Like-named read-outs stand apart in the source and are kept apart here. Where only a bound is given, the exact number is not on record here.

One assay concerns hot plate. Description: Mouse hot plate analgesic testing (HP). Format: in vivo, mice. Particulars: for ANALGESIC ACTIVITY ED50, HP / ED50: hot plate, mice; for ED50: Mus musculus. As to the method: (§1) Tests Using Thermal Nociceptive Stimuli
(a) Mouse Hot Plate Analgesic Testing
The method used is modified after Woolfe and MacDonald, J. Pharmacol. Exp. Ther., 80, 300-307 (1944). A controlled heat stimulus is applied to the feet of mice on a 1/8" thick aluminum plate. A 250 watt reflector infrared heat lamp is placed under the bottom of the aluminum plate. A thermal regulator, connected to thermistors on the plate surface, programs the heat lamp to maintain a constant temperature of 57° C. Each mouse is dropped into a glass cylinder (61/2" diameter) resting on the hot plate, and timing is begun when the animal's feet tough the plate. The mouse is observed at 0.5 and 2 hours after treatment when the test compound for the first "flicking"movements of one or both hind feet, or until 10 seconds elapse without such movements. Morphine has an MPE50 =4-5.6 mg./kg. (s.c.).
(§2) Results of the above tests are recorded as percent maximum possible effect (% MPE). The % MPE of each group is statistically compared to the % MPE of the standard and the predrug control values. The % MPE is calculated as follows: [formula]
(§3) By means of the above procedures, the analgesic activity of several compounds of this invention and of certain prior art compounds are determined. The data are reported in terms of maximum possible effect.
(§4) PBQ=phenylbenzoquinone-induced writhing; TF=tail flick; HP=hot plate; RTC=rat tail clamp; FJ=flinch jump; and TI=tail immersion assays.

In assay [1] the test system is phenylbenzoquinone-induced writhing. The assay can be described thus: Suppression of phenylbenzoquinone irritant-induced writhing (PBQ). It is filed as in vivo, Carworth Farms CF-1 mice. Particulars: mice; for ED50: Mus musculus, read-out: ANALGESIC ACTIVITY ED50, PBQ. As to the method: Test Using Chemical Nociceptive Stimuli
Suppression of Phenylbenzoquinone Irritant-Induced Writhing
Groups of 5 Carworth Farms CF-1 mice are pretreated subcutaneously or orally with saline, morphine, codeine or the test compound. Twenty minutes (if treated subcutaneously) or fifty minutes (if treated orally) later, each group is treated with intraperitoneal injection of phenylbenzoquinone, an irritant known to produce abdominal contractions. The mice are observed for 5 minutes for the presence or absence of writhing starting 5 minutes after the injection of the irritant. MPE50 's of the drug pretreatments in blocking writhing are ascertained.
as §2, §3, §4

Another assay has as its system tail flick. Description: Mouse tail flick analgesic testing (TF). It is filed as in vivo, mice. Particulars: for ANALGESIC ACTIVITY ED50, TF / ED50: tail flick, mice; for ED50: Mus musculus.
Source text: as §1
(b) Mouse Tail Flick Analgesic Testing
Tail flick testing in mice is modified after D'Amour and Smith, J. Pharmacol. Exp. Ther., 72, 74-79 (1941), using controlled high intensity heat applied to the tail. Each mouse is placed in a snug-fitting metal cylinder, with the tail protruding through one end. This cylinder is arranged so that the tail lies flat over a concealed heat lamp. At the onset of testing, an aluminum flag over the lamp is drawn back allowing the light beam to pass through the slit and focus onto the end of the tail. A timer is simultaneously activated. The latency of a sudden flick of the tail is ascertained. Untreated mice usually react within 3-4 seconds after exposure to the lamp. The end point for protection is 10 seconds. Each mouse is tested at 0.5 and 2 hours after treatment with morphine and the test compound. Morphine has an MPE50 of 3.2-5.6 mg./kg. (s.c.).
as §2, §3, §4

A further assay concerns rat tail clamp. Description: Haffner tail pinch procedure / rat tail clamp (RTC). Format: in vivo, male albino rats, Charles River (Sprague-Dawley) CD strain. Particulars: for ED50: 1 hour, read-out: ANALGESIC ACTIVITY ED50, RTC 1 hour. The procedure: Tests Using Pressure Nociceptive Stimuli
Effect on the Haffner Tail Pinch Procedure
A modification of the procedure of Haffner, Experimentelle Prufung Schmerzstillender. Mittel Deutch Med. Wschr., 55, 731-732 (1929) is used to ascertain the effects of the test compound on aggressive attacking responses elicited by a stimulus pinching the tail. Male albino rats (50-60 b.) of the Charles River (Sprague-Dawley) CD strain are used. Prior to drug treatment, and again at 0.5, 1, 2 and 3 hours after treatment, a Johns Hopkins 2.5-inch "bulldog" clamp is clamped onto the root of the rat's tail. The endpoint at each trial is clear attacking and biting behavior directed toward the offending stimulus, with the latency for attack recorded in seconds. The clamp is removed in 30 seconds if attacking has not yet occurred, and the latency of response is recorded as 30 seconds. Morphine is active at 17.8 mg./kg. (i.p.).
as §2, §3, §4

A further assay deals with flinch jump. Description: Flinch-jump test (FJ). Particulars: Rattus norvegicus, rats, 2 hours, read-out: ANALGESIC ACTIVITY ED50, FJ 2 hours. Format: in vivo, male albino rats, Charles River (Sprague-Dawley) CD strain.
Source text: Tests Using Electrical Nociceptive Stimuli
A modification of the flinch-jump procedure of Tenen, Psychopharmacologia, 12, 278-285 (1968) is used for determining pain thresholds. Male albino rats (175-200 g.) of the Charles River (Sprague-Dawley) CD strain are used. Prior to receiving the drug, the feet of each rat are dipped into a 20% glycerol/saline solution. The animals are then placed in a chamber and presented with a series of 1-second shocks to the feet which are delivered in increasing intensity at 30-second intervals. These intensities are 0.26, 0.39, 0.52, 0.78, 1.05, 1.31, 1.58, 1.86, 2.13, 2.42, 2.72 and 3.04 mA. Each animal's behavior is rated for the presence of (a) flinch, (b) squeak and (c) jump or rapid forward movement at shock onset. Single upward series of shock intensities are presented to each rat just prior to, and at 0.5, 2, 4 and 24 hours subsequent to drug treatment.
as §2, §3, §4

In the next assay the test system is tail immersion. Description: Tail immersion procedure (TI). Format: in vivo, male albino mice, Charles River CD-1 strain. Particulars: Mus musculus, 0.5 h, read-out: ANALGESIC ACTIVITY ED50, TI 1/2 hour. As to the method:
(c) Tail Immersion Procedure
The method is a modification of the receptacle procedure developed by Benbasset, et al., Arch. int. Pharmacodyn., 122, 434 (1959). Male albino mice (19-21 g.) of the Charles River CD-1 strain are weighed and marked for identification. Five animals are normally used in each drug treatment group with each animal serving as its own control. For general screening purposes, new test agents are first administered at a dose of 56 mg./kg. intraperitoneally or subcutaneously, delivered in a volume of 10 ml./kg. Preceding drug treatment and at 0.5 and 2 hours post drug, each animal is placed in the cylinder. Each cylinder is provided with holes to allow for adequate ventilation and is closed by a round nylon plug through which the animal's tail protrudes. The cylinder is held in an upright position and the tail is completely immersed in the constant temperature waterbath (56° C.). The endpoint for each trial is an energetic jerk or twitch of the tail coupled with a motor response. In some cases, the endpoint may be less vigorous post drug. To prevent undue tissue damage, the trial is terminated and the tail removed from the waterbath within 10 seconds. The response latency is recorded in seconds to the nearest 0.5 second. A vehicle control and a standard of known potency are tested concurrently with screening candidates. If the activity of a test agent has not returned to baseline values at the 2-hour testing point, response latencies are determined at 4 and 6 hours. A final measurement is made at 24 hours if activity is still observed at the end of the test day.
as §2, §3, §4

Turning to `CC(CCCc1ccccc1)c1cc(O)c2c(c1)OC(C)C1CCC(O)CC21` (racemic) [CH(CH3)(CH2)3C6 H5^(a), dl-6aα-7,8,9,10,10a-hexahydro-1-hydroxy-6α-methyl-3-(1-methyl-4-phenylbutyl)-6H-dibenzo[b,d]pyran-9β-ol], in the assay on hot plate, the “ANALGESIC ACTIVITY ED50, HP” value came out at 5.6 mg/kg. Also, in assay [1], the “ANALGESIC ACTIVITY ED50, PBQ” value turned out to be 0.94 mg/kg. In addition, the “ANALGESIC ACTIVITY ED50, TF” value with tail flick was determined as 1.6 mg/kg.

As for `CCCCCc1cc(O)c2c(c1)OC(C)(C)[C@@H]1CC[C@@H](O)C[C@@H]21` (relative stereo) [C5 H11, reference compound], the ED50 with hot plate is not below 17.8 mg/kg; in the assay with rat tail clamp, 58 mg/kg; in the assay with flinch jump it was 8 mg/kg; in assay [1], 0.68 mg/kg; with tail flick it was 3.2 mg/kg; in the assay on tail immersion (tail immersion, mice, 1/2 hour), 13 mg/kg.

Turning to `CC(CCCc1ccncc1)c1cc(O)c2c(c1)OC(C)(C)[C@@H]1CC[C@@H](O)C[C@@H]21` (relative stereo) [CH2 (CH3)(CH2)34-pyridyl, dl-6aβ,7,8,9,10,10aα-hexahydro-1-hydroxy-6,6-dimethyl-3-[1-methyl-4-(4-pyridyl)butyl]-6H-dibenzo[b,d]pyran-9β-ol], in assay [1], the ED50 is 0.17 mg/kg.

As to `CC(CCCCc1ccccc1)c1cc(O)c2c(c1)OC(C)(C)[C@@H]1CC[C@@H](O)C[C@@H]21` (relative stereo) [CH(CH3 (CH2)4C6 H5, dl-6aβ,7,8,9,10,10aα-hexahydro-1-hydroxy-6,6-dimethyl-3-(1-methyl-5-phenylpentyl)-6H-dibenzo[b,d]pyran-9β-ol], the ED50 is 3.9 mg/kg in the assay on hot plate; less than 3.2 mg/kg in the assay on rat tail clamp; 0.42 mg/kg with flinch jump; 1.33 mg/kg in assay [1]; 2.8 mg/kg in the assay on tail flick; 3.5 mg/kg in the assay with tail immersion (tail immersion, mice, 1/2 hour).

With `CC(CCc1ccccc1)c1cc(O)c2c(c1)OC(C)(C)[C@@H]1CC[C@@H](O)C[C@@H]21` (relative stereo) [CH(CH3)(CH2)2C6 H5, dl-6aβ,7,8,9,10,10aα-hexahydro-1-hydroxy-6,6-dimethyl-3-(1-methyl-3-phenylpropyl)-6H-dibenzo[b,d]pyran-9β-ol], the ED50 in the assay on hot plate was more than 10 mg/kg; in assay [1] it was 5 mg/kg; with tail flick, more than 10 mg/kg.

With `CC(CCOc1ccccc1)c1cc(O)c2c(c1)OC(C)(C)[C@@H]1CC[C@@H](O)C[C@@H]21` (relative stereo) [CH(CH3)(CH2)2OC6 H5, dl-6aβ,7,8,9,10,10aα-hexahydro-1-hydroxy-6,6-dimethyl-3-(1-methyl-3-phenoxypropyl)-6H-dibenzo[b,d]pyran-9β-ol], the ED50 in assay [1] was 0.1 to 1 mg/kg.

In the case of `CC(CCCc1ccccc1)c1cc(O)c2c(c1)OC(C)(C)[C@@H]1CC[C@@H](O)C[C@@H]21` (relative stereo) [CH(CH3)(CH2)3C6 H5, dl-6aβ,7,8,9,10,10aα-Hexahydro-1-hydroxy-6,6-dimethyl-3-(1-methyl-4-phenylbutyl)-6H-dibenzo[b,d]pyran-9β-ol], the ED50 in the assay on hot plate amounted to 0.75 mg/kg; in the assay on rat tail clamp, 1.8 mg/kg; with flinch jump it was 0.11 mg/kg; in assay [1], 0.062 mg/kg; in the assay on tail flick, 0.32 mg/kg; with tail immersion (tail immersion, mice, 1/2 hour), 0.3 mg/kg.

Regarding `CC(CCCOc1ccccc1)c1cc(O)c2c(c1)OC(C)(C)[C@@H]1CC[C@@H](O)C[C@@H]21` (relative stereo) [CH(CH3)(CH2)3OC6 H5, dl-6aβ,7,8,9,10,10aα-hexahydro-1-hydroxy-6,6-dimethyl-3-(1-methyl-4-phenoxybutyl)-6H-dibenzo[b,d]pyran-9β-ol], the ED50 is approximately 10 mg/kg in the assay with hot plate, 0.39 mg/kg in assay [1] and 1.2 mg/kg in the assay with tail flick.

`CCCCCC(C)C(C)c1cc(O)c2c(c1)OC(C)(C)[C@@H]1CC[C@@H](O)C[C@@H]21` (relative stereo) [CH(CH3)CH(CH3)C5 H11, reference compound]: the ED50 in the assay on hot plate is 1.1 mg/kg; with rat tail clamp, 0.44 mg/kg; with flinch jump, 0.11 mg/kg; in assay [1], 0.1 mg/kg; with tail flick, 0.35 mg/kg; with tail immersion (tail immersion, mice, 1/2 hour), 0.38 mg/kg.

As to `CC1(C)Oc2cc(OC3CCCCC3)cc(O)c2[C@@H]2C[C@H](O)CC[C@H]21` (relative stereo) [OC6 H11, dl-6aβ,7,8,9,10,10aα-1-hydroxy-6,6-dimethyl-3-cyclohexyloxy-6H-dibenzo[b,d]pyran-9β-ol], the figures for the ED50 (with hot plate; in assay [1]; in the assay on tail flick) were more than 10 mg/kg, 5.3 mg/kg and more than 10 mg/kg, respectively.

With `CC(CCc1ccccc1)Oc1cc(O)c2c(c1)OC(C)(C)[C@@H]1CC[C@@H](O)C[C@@H]21` (relative stereo) [OCH(CH3)(CH2)2C6 H5, dl-6aβ,7,8,9,10,10aα-hexahydro-1-hydroxy-6,6-dimethyl-3-(1-methyl-3-phenylpropoxy)-6H-dibenzo[b,d]pyran-9β-ol], the ED50 was approximately 3.2 mg/kg with hot plate, 0.21 mg/kg in assay [1] and 1.3 mg/kg with tail flick.

Regarding `CN1CC[C@]23c4c5ccc(O)c4O[C@H]2[C@@H](O)C=C[C@H]3[C@H]1C5` [morphine, reference compound], the “ANALGESIC ACTIVITY ED50, HP” value with hot plate was 4.7 mg/kg. In the assay on hot plate (s.c., 57° C. plate), the MPE50 hot plate lay within 4 to 5.6 mg/kg. Besides, the “ANALGESIC ACTIVITY ED50, RTC (1/2 hr.)” value in the assay on rat tail clamp (1/2 hr. (morphine only), 30 min) was found to be 2.9 mg/kg. For the same molecule, in assay [1], the “ANALGESIC ACTIVITY ED50, PBQ” value is 0.8 mg/kg. In addition, the MPE50 tail flick in the assay with tail flick (s.c.) was 3.2 to 5.6 mg/kg. Further, in the assay with tail flick, the “ANALGESIC ACTIVITY ED50, TF” value came to 3.8 mg/kg. The ED50 in the assay on tail immersion stood at 4 mg/kg.
